This is an account of results in patent US11459339B2, “Biaryl derivative, preparation method thereof and pharmaceutical application thereof” (Abbisko Therapeutics Co., Ltd., priority 2018, dated 2022).

Broadly, the pEC50 is the EC50 on a negative log10 scale, so that one unit is a factor of ten. One may read the pIC50 as −log10 of the IC50, conventionally taken in molar units.

The structures appear in SMILES notation. pEC50, pIC50: −log10 of the molar value.

The target of experiment [1] is interaction between PD-1 and PD-L1 expressed on cell surfaces (Homo sapiens (Human), UniProt Q9NZQ7). Put plainly: Jurkat reporter gene cellular assay (Jurkat/NF-κB-luc/PD1 cells cocultured with Raji-PD-L1 cells, OKT-3 stimulation). The experiment is classed as cell-based. Particulars: NF-κB-luc reporter activation fold, 6 hrs; read-out: Cell Activity EC50. In short, it runs like this: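 Jurkat cells stably expressing human PD-1 and NF-κB-luciferase were cocultured with Raji cells stably expressing human PD-L1 under OKT-3 stimulation, with compound present. Luminescence was read after 6 h.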
Chain of interaction between PD-1 and PD-L1 expressed on cell surfaces (Q9NZQ7 19-290): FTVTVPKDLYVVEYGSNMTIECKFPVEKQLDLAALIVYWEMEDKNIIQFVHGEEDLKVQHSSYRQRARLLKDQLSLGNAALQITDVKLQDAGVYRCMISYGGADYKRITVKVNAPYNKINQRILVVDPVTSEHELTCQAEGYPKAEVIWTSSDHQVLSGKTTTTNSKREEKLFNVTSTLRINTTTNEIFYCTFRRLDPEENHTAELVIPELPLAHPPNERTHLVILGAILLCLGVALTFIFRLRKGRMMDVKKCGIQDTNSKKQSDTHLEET
Background: Reporter assays use an easily measured gene product as a stand-in for the process of interest.

In experiment [2] the target is interaction between PD-1 and PD-L1 (Homo sapiens (Human), UniProt Q9NZQ7). Put plainly: PD1-PDL1 HTRF binding activity test (Cisbio PD-1/PD-L1 binding assay kit). Particulars: read-out: PD1-PDL1 HTRF Binding Activity IC50. Background: Time-resolved FRET reads energy transfer from a long-lived donor to a nearby acceptor.
Chain of interaction between PD-1 and PD-L1 (Q9NZQ7 19-238): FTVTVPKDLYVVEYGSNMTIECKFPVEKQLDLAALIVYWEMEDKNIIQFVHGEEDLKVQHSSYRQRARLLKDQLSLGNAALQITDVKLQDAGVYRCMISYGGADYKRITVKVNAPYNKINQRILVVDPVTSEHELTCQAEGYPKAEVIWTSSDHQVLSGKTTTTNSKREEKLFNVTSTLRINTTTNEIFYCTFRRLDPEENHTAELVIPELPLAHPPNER

In the case of `COc1cc(C(=O)Nc2cccc(-c3cccc(NC(=O)c4cc(OC)c(CN[C@@H](CCO)C(=O)O)cn4)c3C)c2C)ncc1CN[C@@H](CCO)C(=O)O` [Example 69], in experiment [1], the pEC50 was 6.98. Also, the pIC50 in experiment [2] is 9.41.

Turning to `COc1cc(C(=O)Nc2cccc(-c3cccc(NC(=O)c4cc(OC)c(CN[C@@H]5CCOC5=O)cn4)c3C)c2C)ncc1CN[C@@H]1CCOC1=O` [Example 70, N,N'-(2,2′-dimethyl-[1,1′-biphenyl]-3,3′-diyl)bis(4-methoxy-5-((((R)-2-oxotetrahydrofuran-3-yl)amino)methyl)picolinamide)], the pEC50 in experiment [1] was 5.66. In addition, the pIC50 in experiment [2] is 9.27.

For the molecule `COc1cc(C(=O)Nc2cccc(-c3cccc(NC(=O)c4cc(OC)c(CN[C@H](CCO)C(=O)O)cn4)c3C)c2C)ncc1CN[C@H](CCO)C(=O)O` [Example 71], the negative logarithm of the EC50 (pEC50) in experiment [1] was 6.12. The pIC50 in experiment [2] was 9.48.

Take `COc1cc(C(=O)Nc2cccc(-c3cccc(NC(=O)c4cc(OC)c(CN[C@@H]5COC(=O)C5)cn4)c3C)c2C)ncc1CN[C@@H]1COC(=O)C1` [Example 72, N,N'-(2,2′-dimethyl-[1,1′-biphenyl]-3,3′-diyl)bis(4-methoxy-5-((((S)-5-oxotetrahydrofuran-3-yl)amino)methyl)picolinamide)]: the pEC50 in experiment [1] was 5.81. In experiment [2], the pIC50 is 9.32.

As for `COc1cc(C(=O)Nc2cccc(-c3cccc(NC(=O)c4cc(OC)c(CN[C@H](CO)CC(=O)O)cn4)c3C)c2C)ncc1CN[C@H](CO)CC(=O)O` [Example 73, (3S,3′S)-3,3′-((((((2,2′-dimethyl-[1,1′-biphenyl]-3,3′-diyl)bis(azanediyl))bis(carbonyl))bis (4-methoxypyridine-6,3-diyl))bis (methylene))bis(azanediyl))bis(4-hydroxybutanoic acid)], the pEC50 in experiment [1] is 6.09. In addition, the pIC50 in experiment [2] is 9.54.

Turning to `COc1cc(C(=O)Nc2cccc(-c3cccc(NC(=O)c4cc(OC)c(CN[C@H]5COC(=O)C5)cn4)c3C)c2C)ncc1CN[C@H]1COC(=O)C1` [Example 74], in experiment [1], the pEC50 was 6.52. Besides, the negative-log IC50 (pIC50) in experiment [2] was 9.85.

For the molecule `COc1cc(C(=O)Nc2cccc(-c3cccc(NC(=O)c4cc(OC)c(CN[C@@H](CO)CC(=O)O)cn4)c3C)c2C)ncc1CN[C@@H](CO)CC(=O)O` [Example 75], the pEC50 in experiment [1] is 6.11. Also, the pIC50 in experiment [2] is 9.44.

For the molecule `COC[C@@H](NCc1cnc(C(=O)Nc2cccc(-c3cccc(NC(=O)c4cc(OC)c(CN[C@H](COC)C(=O)OC)cn4)c3C)c2C)cc1OC)C(=O)OC` [Example 76, dimethyl 2,2′-((((((2,2′-dimethyl-[1,1′-biphenyl]-3,3′-diyl)bis(azanediyl))bis(carbonyl))bis (4-methoxypyridine-6,3-diyl))bis(methylene))bis(azanediyl))(2R,2′R)-bis(3-methoxypropanoate)], the pEC50 in experiment [1] is 5.51. For the same molecule, the pIC50 in experiment [2] was 8.11.

With `COC[C@@H](NCc1cnc(C(=O)Nc2cccc(-c3cccc(NC(=O)c4cc(OC)c(CN[C@H](COC)C(=O)O)cn4)c3C)c2C)cc1OC)C(=O)O` [Example 77, (2R,2′R)-2,2′-((((((2,2′-dimethyl-[1,1′-biphenyl]-3,3′-diyl)bis(azanediyl))bis(carbonyl))bis(4-methoxypyridine-6,3-diyl))bis(methylene))bis (azanediyl))bis(3-methoxypropanoic acid)], in experiment [1], the pEC50 was 6.53. For the same molecule, in experiment [2], the pIC50 was 9.39.

Consider `COC[C@H](NCc1cnc(C(=O)Nc2cccc(-c3cccc(NC(=O)c4cc(OC)c(CN[C@@H](COC)C(=O)OC)cn4)c3C)c2C)cc1OC)C(=O)OC` [Example 78, dimethyl 2,2′-((((((2,2′-dimethyl-[1,1′-biphenyl]-3,3′-diyl)bis(azanediyl))bis(carbonyl))bis(4-methoxypyridine-6,3-diyl))bis(methylene))bis (azanediyl))(2S,2′S)-bis(3-methoxypropanoate)], for which the pEC50 in experiment [1] was 5.54. For the same molecule, the pIC50 in experiment [2] is 7.96.

As to `COC[C@H](NCc1cnc(C(=O)Nc2cccc(-c3cccc(NC(=O)c4cc(OC)c(CN[C@@H](COC)C(=O)O)cn4)c3C)c2C)cc1OC)C(=O)O` [Example 79, (2S,2′S)-2,2′-((((((2,2′-dimethyl-[1,1′-biphenyl]-3,3′-diyl)bis(azanediyl))bis(carbonyl))bis(4-methoxypyridine-6,3-diyl))bis(methylene))bis (azanediyl))bis(3-methoxypropanoic acid)], the pEC50 in experiment [1] was 6.77. In addition, in experiment [2], the pIC50 is 9.19.

For the molecule `COc1cc(C(=O)Nc2cccc(-c3cccc(NC(=O)c4cc(OC)c(CNCCS(C)(=O)=O)cn4)c3C)c2C)ncc1CNCCS(C)(=O)=O` [Example 80, N,N'-(2,2′-dimethyl-[1,1′-biphenyl]-3,3′-diyl)bis(4-methoxy-5-(((2-(methylsulfonyl)ethyl)amino)methyl)picolinamide)], in experiment [1], the negative logarithm of the EC50 (pEC50) was 5.43. Further, the pIC50 in experiment [2] was 10.09.

As for `COc1cc(C(=O)Nc2cccc(-c3cccc(NC(=O)c4cc(OC)c(CNCC[S+](C)[O-])cn4)c3C)c2C)ncc1CNCC[S+](C)[O-]` (stereo not shown) [Example 81, N,N'-(2,2′-dimethyl-[1,1′-biphenyl]-3,3′-diyl)bis(4-methoxy-5-(((2-(methylsulfinyl)ethyl)amino)methyl)picolinamide)], the pEC50 in experiment [1] was 6.05. For the same molecule, in experiment [2], the pIC50 was 9.37.

As for `COC(=O)[C@H]1CCN(Cc2cnc(C(=O)Nc3cccc(-c4cccc(NC(=O)c5cc(OC)c(CN6CC[C@H](C(=O)OC)C6)cn5)c4C)c3C)cc2OC)C1` [Example 82, dimethyl 1,1′-(((((2,2′-dimethyl-[1,1-biphenyl]-3,3′-diyl)bis(azanediyl))bis(carbonyl))bis(4-methoxypyridine-6,3-diyl))bis(methylene))(3S,3′S)-bis(pyrrolidine-3-carboxylate)], the pEC50 in experiment [1] was 6.25. Also, the pIC50 in experiment [2] was 8.72.

Consider `COc1cc(C(=O)Nc2cccc(-c3cccc(NC(=O)c4cc(OC)c(CN5CC[C@H](C(=O)O)C5)cn4)c3C)c2C)ncc1CN1CC[C@H](C(=O)O)C1` [Example 83, (3S,3′S)-1,1′-(((((2,2′-dimethyl-[1,1′-biphenyl]-3,3′-diyl)bis(azanediyl))bis(carbonyl))bis(4-methoxypyridine-6,3-diyl))bis(methylene))bis (pyrroidine-3-carboxylic acid)], for which the pEC50 in experiment [1] is 6.51. Also, the pIC50 in experiment [2] is 8.98.

On to `COC(=O)C1CCN(Cc2cnc(C(=O)Nc3cccc(-c4cccc(NC(=O)c5cc(OC)c(CN6CCC(C(=O)OC)CC6)cn5)c4C)c3C)cc2OC)CC1` [Example 84, dimethyl 1,1′-(((((2,2′-dimethyl-[1,1′-biphenyl]-3,3′-diyl)bis(azanediyl))bis(carbonyl))bis(4-methoxypyridine-6,3-diyl))bis(methylene))bis(piperidine-4-carboxylate)], for which the pEC50 in experiment [1] was 6.22. For the same molecule, in experiment [2], the pIC50 is 8.87.

Consider `COc1cc(C(=O)Nc2cccc(-c3cccc(NC(=O)c4cc(OC)c(CN5CCC(C(=O)O)CC5)cn4)c3C)c2C)ncc1CN1CCC(C(=O)O)CC1` [Example 85, 1,1′-(((((2,2′-dimethyl-[1,1′-biphenyl]-3,3′-diyl)bis(azanediyl))bis(carbonyl))bis (4-methoxypyridine-6,3-diyl))bis(methylene))bis (piperidine-4-carboxylic acid)], for which the pEC50 in experiment [1] was 6.47. The pIC50 in experiment [2] is 9.35.

Take `COc1cc(C(=O)Nc2cccc(-c3cccc(NC(=O)c4cc(OC)c(CN[C@H](CO)C(N)=O)cn4)c3C)c2C)ncc1CN[C@H](CO)C(N)=O` [Example 86, N,N′-(2,2′-dimethyl-[1,1′-biphenyl]-3,3′-diyl)bis(5-((((R)-1-amino-3-hydroxy-1-oxopropan-2-yl)amino)methyl)-4-methoxypicolinamide)]: the pEC50 in experiment [1] is 6.39. In addition, the pIC50 in experiment [2] was 8.87.

Take `CCNC(=O)[C@@H](CO)NCc1cnc(C(=O)Nc2cccc(-c3cccc(NC(=O)c4cc(OC)c(CN[C@H](CO)C(=O)NCC)cn4)c3C)c2C)cc1OC` [Example 87]: in experiment [1], the pEC50 is 6.10. In experiment [2], the pIC50 is 8.97.

As to `COc1cc(C(=O)Nc2cccc(-c3cccc(NC(=O)c4cc(OC)c(CNCCS(C)(=N)=O)cn4)c3C)c2C)ncc1CNCCS(C)(=N)=O` (stereo not shown) [Example 88, N,N'-(2,2′-dimethyl-[1,1′-biphenyl]-3,3′-diyl)bis(4-methoxy-5-(((2-(S-methylsulfonimidoyl)ethyl)amino)methyl)picolinamide)], the pEC50 in experiment [1] is 6.74. For the same molecule, the negative-log IC50 (pIC50) in experiment [2] is 9.39.

On to `COc1cc(C(=O)Nc2cccc(-c3cccc(NC(=O)c4cc(OC)c(CNCCN=S(C)(C)=O)cn4)c3C)c2C)ncc1CNCCN=S(C)(C)=O` [Example 89, N,N'-(2,2′-dimethyl-[1,1′-biphenyl]-3,3′-diyl)bis(5-(((2-((dimethyl(oxo)λ^6-sulfaneylidene)amino)ethyl)amino)methyl)-4-methoxypicolinamide)], for which the pEC50 in experiment [1] is 6.37. Moreover, the pIC50 in experiment [2] is 9.06.

In the case of `COc1cc(C(=O)Nc2cccc(-c3cccc(NC(=O)c4cc(OC)c(CNCCN=S5(=O)CCCC5)cn4)c3C)c2C)ncc1CNCCN=S1(=O)CCCC1` [Example 90, N,N'-(2,2′-dimethyl-[1,1′-biphenyl]-3,3′-diyl)bis(4-methoxy-5-(((2-((1-oxidotetrahydro-1λ^6-thiophen-1-ylidene)amino)ethyl)amino)methyl)picolinamide)], the pEC50 in experiment [1] is 6.88. Besides, the pIC50 in experiment [2] is 9.44.

As to `Cc1c(NC(=O)c2cc(C3CC3)c(CNCCO)cn2)cccc1-c1cccc(NC(=O)c2cc(C3CC3)c(CNCCO)cn2)c1C` [Example 91, N,N'-(2,2′-dimethyl-[1,1′-biphenyl]-3,3′-diyl)bis(4-cyclopropyl-5-(((2-hydroxyethyl)amino)methyl)picolinamide)], the negative logarithm of the EC50 (pEC50) in experiment [1] was 7.41. In experiment [2], the pIC50 is 9.80.
